{"source": "patent US20160309708A1", "about": "“POLYCARBOXYLIC ACID ESTER ALKYL DERIVED FROM BRANCHED AND STRAIGHT ALCOHOL OF PLANT ORIGIN, AND USE OF AN ALKYL ESTER IN AGROCHEMICAL FORMULATIONS” (priority 2013, published 2016)", "data": [{"assay": "Solubility limit of active ingredients in the alkyl esters of polycarboxylic acids at 25° C.", "format": "physicochemical", "settings": "under agitation, solvent: alkyl esters of polycarboxylic acids", "units": {"solubility limit in alkyl esters of polycarboxylic acids of this invention": "GRAMS PER LITER"}, "values": [{"molecule": "CCCC1COC(Cn2cncn2)(c2ccc(Cl)cc2Cl)O1", "note": "(centres unmarked) [PROPICONAZOLE, Propiconazole]", "solubility limit in alkyl esters of polycarboxylic acids of this invention": 1568}, {"molecule": "Cc1c(COC(=O)[C@@H]2[C@H](/C=C(\\Cl)C(F)(F)F)C2(C)C)cccc1-c1ccccc1", "note": "(racemic) [BIFENTRIN, Bifenthrin]", "solubility limit in alkyl esters of polycarboxylic acids of this invention": 702}, {"molecule": "CC(C)(C)C(O)(CCc1ccc(Cl)cc1)Cn1cncn1", "note": "(centres unmarked) [TEBUCONAZOLE, Tebuconazole]", "solubility limit in alkyl esters of polycarboxylic acids of this invention": 240}, {"molecule": "CCOP(=S)(OCC)Oc1nc(Cl)c(Cl)cc1Cl", "note": "[CHLORPYRIFOS, Chlorpyrifos]", "solubility limit in alkyl esters of polycarboxylic acids of this invention": 900}, {"molecule": "Abamectin", "solubility limit in alkyl esters of polycarboxylic acids of this invention": 116}]}]}
